From patent publication US6869957B1, “Non-peptide tachykinin receptor antagonists” (Eli Lilly and Company, priority 1993, dated 2005)
pIC50: −log10 of the molar value.

Experiments:
NK-1 receptor = molecular target: T1, NK-1 receptor (Homo sapiens, UniProt P25103); experiment: NK-1 Receptor Binding Assay (125I-labeled substance P, IM9 cells); conditions: for pIC50: inhibits fifty percent of binding of 125I-substance P to IM9 cells
T1 construct: endogenous in cells; host or cells: IM9 cells (human cell line), whole cells
Description: (§1) The biological activity of the compounds of the present invention was evaluated employing an initial screening assay which rapidly and accurately measured the binding of the tested compound to known NK-1 and NK-2 receptor sites. Assays useful for evaluating tachykinin receptor antagonists are well known in the art.
NK-1 Receptor Binding Assay
Radioreceptor binding assays were performed using a derivative of a previously published protocol.
The IM9 cell line is a well-characterized and readily available human cell line.
The reaction was terminated by filtration through a glass fiber filter harvesting system using filters previously soaked for 20 minutes in 0.1% polyethylenimine. Specific binding of labeled substance P was determined in the presence of 20 nM unlabeled ligand.

human NK-2 receptor = molecular target: T2, human NK-2 receptor (Homo sapiens, UniProt P21452); experiment: NK-2 Receptor Binding Assay ([125I]iodohistidyl-neurokinin A, CHO-hNK-2R membranes); conditions: for pIC50: inhibits fifty percent of binding of [125I]iodohistidyl-neurokinin A to CHO-hNK-2R membranes
T2 construct: expressed in transfected cells; host or cells: CHO-hNK-2R cells (CHO-derived), membrane preparation
T2 sequence (P21452 1-398): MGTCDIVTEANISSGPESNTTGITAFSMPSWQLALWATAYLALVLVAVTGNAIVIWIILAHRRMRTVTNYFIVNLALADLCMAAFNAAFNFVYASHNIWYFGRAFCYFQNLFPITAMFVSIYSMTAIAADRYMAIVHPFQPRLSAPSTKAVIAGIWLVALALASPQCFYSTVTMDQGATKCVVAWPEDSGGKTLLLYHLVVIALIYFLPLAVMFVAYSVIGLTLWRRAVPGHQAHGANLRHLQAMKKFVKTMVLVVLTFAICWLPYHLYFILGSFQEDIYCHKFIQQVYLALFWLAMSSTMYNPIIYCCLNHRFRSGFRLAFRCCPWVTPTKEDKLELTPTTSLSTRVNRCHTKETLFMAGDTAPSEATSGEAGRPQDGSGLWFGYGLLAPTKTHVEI
Description: as §1, with “art. See. e.g., J. Jukic, et al., Life Sciences, 49:1463-1469 (1991); N. Kucharczyk, et al., Journal of Medicinal Chemistry, 36:1654-1661 (1993); N. Rouissi, et al., Biochemical and Biophysical Research Communications, 176:894-901 (1991).” for “art.”
NK-2 Receptor Binding Assay
The CHO-hNK-2R cells, a CHO-derived cell line transformed with the human NK-2 receptor, expressing about 400,000 such receptors per cell, were grown in 75 cm^2 flasks or roller bottles in minimal essential medium (alpha modification) with 10% fetal bovine serum. The gene sequence of the human NK-2 receptor is given in N. P. Gerard, et al., Journal of Biological Chemistry, 265:20455-20462 (1990).
For preparation of membranes, 30 confluent roller bottle cultures were dissociated by washing each roller bottle with 10 ml of Dulbecco's phosphate buffered saline (PBS) without calcium and magnesium, followed by addition of 10 ml of enzyme-free cell dissociation solution (PBS-based, from Specialty Media, Inc.). After an additional 15 minutes, the dissociated cells were pooled and centrifuged at 1,000 RPM for 10 minutes in a clinical centrifuge. Membranes were prepared by homogenization of the cell pellets in 300 ml 50 mM Tris buffer, pH 7.4 with a Tekma® homogenizer for 10-15 seconds, followed by centrifugation at 12,000 RPM (20,000×g) for 30 minutes using a Beckman JA-14® rotor. The pellets were washed once using the above procedure. and the final pellets were resuspended in 100-120 ml 50 mM Tris buffer, pH 7.4, and 4 ml aliquots stored frozen at −70° C. The protein concentration of this preparation was 2 mg/ml.
For the receptor binding assay, one 4-ml aliquot of the CHO-hNK-2R membrane preparation was suspended in 40 ml of assay buffer containing 50 mM Tris, pH 7.4, 3 mM manganese chloride, 0.02% bovine serum albumin (BSA) and 4 μg/ml chymostatin. A 200 μl volume of the homogenate (40 μg protein) was used per sample. The radioactive ligand was [^125I]iodohistidyl-neurokinin A (New England Nuclear, NEX-252), 2200 Ci/mmol. The ligand was prepared in assay buffer at 20 nCi per 100 μl; the final concentration in the assay was 20 pM. Non-specific binding was determined using 1 μM eledoisin. Ten concentrations of eledoisin from 0.1 to 1000 nM were used for a standard concentration-response curve.
All samples and standards were added to the incubation in 10 μl dimethylsulfoxide (DMSO) for screening (single dose) or in 5 μl DMSO for IC50 determinations. The order of additions for incubation was 190 or 195 μl assay buffer, 200 μl homogenate, 10 or 5 μl sample in DMSO, 100 μl radioactive ligand. The samples were incubated 1 hr at room temperature and then filtered on a 48 well Brandel cell harvester through GF/B filters which had been presoaked for two hours in 50 mM Tris buffer, pH 7.7, containing 0.5% BSA. The filter was washed 3 times with approximately 3 ml of cold 50 mm Tris buffer, pH 7.7. The filter circles were then punched into 12×75 mm polystyrene tubes and counted in a gamma counter.

T1 sequence (P25103 whole entry): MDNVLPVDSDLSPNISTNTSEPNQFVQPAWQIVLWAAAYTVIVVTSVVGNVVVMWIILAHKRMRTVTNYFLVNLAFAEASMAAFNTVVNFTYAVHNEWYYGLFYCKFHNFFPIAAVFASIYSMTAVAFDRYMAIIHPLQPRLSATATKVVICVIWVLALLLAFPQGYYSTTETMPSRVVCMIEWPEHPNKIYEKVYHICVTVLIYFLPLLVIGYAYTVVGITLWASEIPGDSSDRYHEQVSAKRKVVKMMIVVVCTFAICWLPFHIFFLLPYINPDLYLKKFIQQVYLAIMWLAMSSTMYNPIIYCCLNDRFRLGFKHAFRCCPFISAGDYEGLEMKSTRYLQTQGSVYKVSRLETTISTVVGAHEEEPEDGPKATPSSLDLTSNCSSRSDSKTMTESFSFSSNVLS

Row | Compound | pIC50 (NK-1 receptor) | also measured
1 | COc1ccccc1CN(CC(Cc1c[nH]c2ccccc12)NC(=O)OCc1ccccc1)C(C)=O (centres unmarked) [Example 92] | 7.01 | –
2 | O=C(CN1CCN(c2ccccc2)CC1)NC(CNCc1ccccc1C(F)(F)F)Cc1c[nH]c2ccccc12 (centres unmarked) [Example 3] | 7.54 | –
3 | COc1ccccc1CN(CC(Cc1c[nH]c2ccccc12)NC(=O)CSc1ccccc1)C(C)=O (centres unmarked) [Example 57] | 6.82 | –
4 | COc1ccccc1CN(C[C@H](Cc1c[nH]c2ccccc12)NC(=O)CCC(=O)c1ccccc1)C(C)=O [Example 97] | 5.89 | –
5 | COc1ccccc1CN(CC(Cc1c[nH]c2ccccc12)NC(=O)CCc1ccccc1)C(C)=O (centres unmarked) [Example 91] | 5.52 | –
6 | COc1ccccc1CN(CC(Cc1c[nH]c2c(C)cccc12)NC(=O)CN1CCN(c2ccccc2)CC1)C(C)=O (centres unmarked) [Example 115] | 7.81 | –
7 | COc1ccc2[nH]cc(CC(CN(Cc3ccccc3OC)C(C)=O)NC(=O)CN3CCN(c4ccccc4)CC3)c2c1 (centres unmarked) [Example 117] | 7.48 | –
8 | CC(=O)N(Cc1ccccc1Cl)CC(Cc1c[nH]c2ccccc12)NC(=O)CN1CCN(C(C)C)CC1 (centres unmarked) [Example 86] | 9.44 | –
9 | COc1ccccc1CN(C[C@H](Cc1c[nH]c2ccccc12)NC(=O)OCc1ccccc1)C(C)=O [Example 93] | – | NK-1 percent inhibition of binding (NK-1 receptor; @ 1 μM): 16% @
10 | CCCCN(CC(Cc1c[nH]c2ccccc12)NC(=O)CN1CCN(c2ccccc2)CC1)C(C)=O (centres unmarked) [Example 39] | 6.86 | –
11 | COc1ccccc1CN(CC(Cc1c[nH]c2cc(F)ccc12)NC(=O)CN1CCC(N2CCCCC2)CC1)C(C)=O (centres unmarked) [Example 131a] | 9.15 | –
12 | COc1ccccc1CN(CC(C)(Cc1c[nH]c2ccccc12)NC(=O)CN1CCN(c2ccccc2)CC1)C(C)=O (centres unmarked) [Example 133] | 7.94 | –
13 | CC(=O)N(Cc1ccccc1Cl)CC(Cc1c[nH]c2ccccc12)NC(=O)CN1CCN(c2ccccc2)CC1 (centres unmarked) [Example 13] | 8.89 | –
14 | COc1ccccc1CN(CC(Cc1c[nH]c2c(C)cccc12)NC(=O)CN1CCC(N2CCCCC2)CC1)C(C)=O (centres unmarked) [Example 128] | 8.96 | –
15 | COc1ccccc1CN(CC(Cc1c[nH]c2ccc(Br)cc12)NC(=O)CN1CCC(N2CCCCC2)CC1)C(C)=O (centres unmarked) [Example 129] | 8.07 | –
16 | O=C(NCC(Cc1ccccc1)NC(=O)c1ccccc1)c1ccccc1 (centres unmarked) [Example 163] | – | NK-2 percent inhibition of binding (human NK-2 receptor; @ 10 μM): 44% @
17 | CC(=O)N(Cc1ccccc1Cl)CC(Cc1c[nH]c2ccccc12)NC(=O)CN1CCC(N2CCCCC2)CC1 (centres unmarked) [Example 48] | 9.62 | –
18 | COc1ccc2[nH]cc(CC(CNCc3ccccc3OC)NC(=O)CN3CCC(N4CCCCC4)CC3)c2c1 (centres unmarked) [Example 121] | 6.07 | –
19 | COc1ccccc1CN(CC(Cc1csc2ccccc12)NC(=O)CN1CCN(c2ccccc2)CC1)C(C)=O (centres unmarked) [Example 143] | 8.10 | –
20 | COc1ccccc1CN(C[C@@H](Cc1c[nH]c2ccccc12)NC(=O)CCC(=O)c1ccccc1)C(C)=O [Example 96] | 7.46 | –
21 | NCC(Cc1c[nH]c2ccccc12)NC(=O)CN1CCN(c2ccccc2)CC1 (centres unmarked) [Example 150, 1-amino-3-(1H-indol-3-yl)-2-[N-(2-((4-phenyl)piperazin-1-yl)acetyl)amino]propane] | – | inhibition at 1 µM (NK-1 receptor; @ 1 μM, read-out: NK-1 percent inhibition of binding): 45%
22 | COc1ccccc1CN(CC(Cc1c[nH]c2ccc(OCc3ccccc3)cc12)NC(=O)CN1CCC(N2CCCCC2)CC1)C(C)=O (centres unmarked) [Example 131] | 7.17 | –

Row | Compound | pIC50 (NK-1 receptor) | also measured
23 | COc1cccc(CNCC(Cc2c[nH]c3ccccc23)NC(=O)CN2CCN(c3ccccc3)CC2)c1 (centres unmarked) [Example 7] | 6.64 | –
24 | COc1ccccc1CN(CC(C)(Cc1c[nH]c2ccccc12)NC(=O)CBr)C(=O)OC(C)(C)C (centres unmarked) [Example 134] | – | NK-1 percent inhibition of binding (NK-1 receptor; @ 1 μM): 14% @
25 | COc1ccccc1CN(CC(Cc1c[nH]c2ccccc12)NC(=O)CBr)C(C)=O (centres unmarked) [Example 55] | 7.15 | –
26 | COc1ccccc1CNC[C@@H](Cc1c[nH]c2ccccc12)NC(=O)CN1CCN(c2ccccc2)CC1 [Example 5] | 7.21 | –
27 | COc1ccccc1CN(CC(C)(Cc1c[nH]c2ccccc12)NC(=O)CN1CCC(N2CCCCC2)CC1)C(C)=O (centres unmarked) [Example 132] | 8.38 | –
28 | COc1ccc(CNCC(Cc2c[nH]c3ccccc23)NC(=O)CN2CCN(c3ccccc3)CC2)cc1 (centres unmarked) [Example 8] | 6.89 | –
29 | CC(=O)N(Cc1ccccc1C(F)(F)F)CC(Cc1c[nH]c2ccccc12)NC(=O)CN1CCN(c2ccccc2)CC1 (centres unmarked) [Example 15] | 8.68 | –
30 | COc1ccccc1CNCC(Cc1c[nH]c2ccc(OCc3ccccc3)cc12)NC(=O)CN1CCC(N2CCCCC2)CC1 (centres unmarked) [Example 122] | 6.26 | –
31 | COc1ccccc1CNCC(Cc1c[nH]c2ccc(OCc3ccccc3)cc12)NC(=O)CN1CCN(c2ccccc2)CC1 (centres unmarked) [Example 112] | 6.57 | –
32 | COc1ccccc1CNCC(Cc1c[nH]c2ccccc12)NC(=O)CN1CCN(c2ccccc2)CC1 (centres unmarked) [Example 6] | – | NK-1 percent inhibition of binding (NK-1 receptor; @ 1 μM): 62% @
33 | COc1ccccc1CN(CC(Cc1csc2ccccc12)NC(=O)CN1CCC(N2CCCCC2)CC1)C(C)=O (centres unmarked) [Example 149] | 8.92 | –
34 | COc1ccccc1CNCC(Cc1c[nH]c2ccc(Br)cc12)NC(=O)CN1CCC(N2CCCCC2)CC1 (centres unmarked) [Example 120] | 5.60 | –
35 | COc1ccccc1CN(CC(Cc1c[nH]c2ccccc12)NC(=O)CCc1ccccc1)C(C)=O (centres unmarked) [Example 90] | 7.19 | –
36 | COc1ccccc1CN(CC(Cc1c[nH]c2ccc(OCc3ccccc3)cc12)NC(=O)CN1CCN(c2ccccc2)CC1)C(C)=O (centres unmarked) [Example 118] | 6.51 | –
37 | CC(=O)N(Cc1ccccc1Cl)CC(Cc1c[nH]c2ccccc12)NC(=O)CN1CCC(N2CCCCC2)CC1 (centres unmarked) [Example 49] | 6.87 | –
38 | CC(=O)N(Cc1ccccc1Cl)CC(Cc1c[nH]c2ccccc12)NC(=O)CN1CCN(C2CCCCC2)CC1 (centres unmarked) [Example 87] | 9.11 | –
39 | COc1ccc2[nH]cc(CC(CN(Cc3ccccc3OC)C(C)=O)NC(=O)CN3CCC(N4CCCCC4)CC3)c2c1 (centres unmarked) [Example 130] | 7.72 | –
40 | COc1ccccc1CN(CC(Cc1c[nH]c2ccccc12)NC(=O)CN1CCN(C(C)C)CC1)C(C)=O (centres unmarked) [Example 73] | 9.00 | –
41 | COc1ccccc1CN(CC(Cc1c[nH]c2ccccc12)NC(=O)CN1CCN(c2ccccc2)CC1)C(C)=O (racemic) [Example 17] | – | pIC50 (human NK-2 receptor): 5.80
42 | COc1ccccc1CN(CC(Cc1c[nH]c2ccccc12)NC(=O)CN1CCC(N2CCCCC2)CC1)C(C)=O (racemic) [Example 50] | – | pIC50 (human NK-2 receptor): 5.47
43 | NCC(NC(c1ccccc1)(c1ccccc1)c1ccccc1)c1ccc(Cl)c(Cl)c1 (centres unmarked) [Example 172] | – | NK-1 percent inhibition of binding (NK-1 receptor; @ 5 μM): 46% @
44 | O=C(CN1CCN(c2ccccc2)CC1)NC(CNCc1ccccc1Cl)Cc1c[nH]c2ccccc12 (centres unmarked) [Example 2, 1-[N-(2-chlorobenzyl)amino]-3-(1H-indol-3-yl)-2-[N-(2-((4-phenyl)piperazin-1-yl)acetyl)amino]propane] | 7.44 | –
